How the values were obtained:
dogs = assay: Cardiovascular safety pharmacology, single dose in dogs; assay type: in vivo, dog; settings: single dose of up to 15 mg/kg
female rats = assay: Pulmonary safety pharmacology in female rats; assay type: in vivo, rat; settings: doses up to 40 mg/kg
[1] = In vitro haemolysis and human plasma compatibility
[2] = system: children with rare genetic epilepsies; assay: Phase 2 open-label trial, safety, tolerability and disposition; assay type: in vivo, human
Excerpt: Example 3 concerns a Phase 2 Multicenter, Open-Label Proof-of-Concept Trial of ganaxolone (GNX) in cohorts of children having genetic epilepsies (PCDH19, CDKL5 LGS, and CSWS) (ClinicalTrials.gov Identifier: NCT02358538). There were 11 female children with PCDH19 epilepsy between 5-16 years old with a confirmed genetic mutation. There were 6 female and 1 male children with confirmed genetic mutations in the CDKL5 cohort. There were 10 children in the Lennox Gastaut Syndrome cohort. Two children with CSWS were enrolled into the study. The study was conducted with 12 weeks baseline, and up to 26 weeks of treatment followed by a 52 week open label treatment. The primary efficacy was the percentage change in seizure frequency per 28 days relative to baseline calculated using daily seizure diary. [Time Frame: 26 weeks]. Secondary Outcome Measures were: Clinician Global Impression of Change score as assessed by questionnaire. [Time Frame: 26 Weeks]; Patient Global Impression of Change score as assessed by questionnaire. [Time Frame: 26 Weeks]; Evaluation of safety and tolerability of open-label ganaxolone as adjunctive therapy for uncontrolled seizures in children with rare genetic epilepsies, based on adverse event log and other clinical safety assessments. [Time Frame: 26 weeks]; Responder rates [Time Frame: 26 weeks]; and Seizure free days [Time Frame: 26 weeks].
Following screening and baseline evaluations, consenting patients enrolled into a 26-week study during which investigators were allowed to flexibly dose ganaxolone up to a dose of 1,800 mg/day for patients whose body weight was >30 kg, or up to 63 mg/kg/day for patients whose body-weight was <30 kg. The primary efficacy measure is % change from baseline in the 28-day seizure frequency count. Safety and tolerability were within the secondary objectives of the study.
A total of 30 subjects were enrolled in the study: one-half (15 subjects) completed the 26-week open-label treatment period and one-half (15 subjects) discontinued the study. In total, the main reasons for study discontinuation in the safety population were lack of efficacy (8 subjects [26.7%]), and AE or SAE (4 subjects [13.3%)]). All 30 (100.0%) subjects were in the safety and MITT population.
Ganaxolone was generally safe and well-tolerated in subjects with epilepsy disorders. […] In the CDD cohort, 6 subjects (85.7%) experienced a total of 45 TEAEs; in the CSWS cohort, 1 subject (50.0%) had 7 TEAEs; in the LGS cohort, 7 subjects (70.0%) had 24 TEAEs; and in the PCDH19 cohort, 11 subjects (100.0%) had 95 TEAEs.
No deaths were reported in this study.

[3] = human plasma following oral administration; cited from earlier work

## CC(=O)[C@H]1CC[C@H]2[C@@H]3CC[C@H]4C[C@](C)(O)CC[C@]4(C)[C@H]3CC[C@]12C [Ganaxolone, 3α-hydroxy-3β-methyl-5α-pregnan-20-one]
dogs
  Effect on cardiovascular parameters: no effect
Female rats
  Pulmonary effects: No pulmonary effects
[1]
  Compatibility with human plasma: compatible with human plasma
  Haemolysis: did not cause haemolysis
[2]; CDD cohort
  Total number of TEAEs: 45 TEAEs
[2]; CDD cohort, safety population
  Subjects experiencing TEAEs: 85.7%
[2]; CDKL5 N = 7
  Discontinued during the 26-week open-label period, reason AE or SAE: 0 n (%)
  Discontinued during the 26-week open-label period, reason lack of efficacy: 1 n (%)
[2]; CSWS N = 2
  Discontinued during the 26-week open-label period, reason AE or SAE: 1 n (%)
  Discontinued during the 26-week open-label period, reason lack of efficacy: 1 n (%)
[2]; CSWS cohort
  Subjects experiencing TEAEs: 50.0%
  Total number of TEAEs: 7 TEAEs
[2]; LGS N = 10
  Discontinued during the 26-week open-label period, reason AE or SAE: 1 (10.0) n (%)
  Discontinued during the 26-week open-label period, reason lack of efficacy: 3 (30.0) n (%)
[2]; LGS cohort
  Subjects experiencing TEAEs: 70.0%
  Total number of TEAEs: 24 TEAEs
[2]; PCDH19 N = 11
  Adverse event: Abdominal pain: 2 (18.2) N (%)
  Adverse event: Fatigue: 3 (27.3) N (%)
  Adverse event: Headache: 3 (27.3) N (%)
  Adverse event: Pyrexia: 2 (18.2) N (%)
  Adverse event: Seizure: 3 (27.3) N (%)
  Adverse event: Somnolence: 4 (36.4) N (%)
  Adverse event: Vomiting: 2 (18.2) N (%)
  Discontinued during the 26-week open-label period, reason AE or SAE: 2 n (%)
  Discontinued during the 26-week open-label period, reason lack of efficacy: 3 n (%)
[2]; PCDH19 cohort
  Subjects experiencing TEAEs: 100.0%
  Total number of TEAEs: 95 TEAEs
[2]; Total N = 30
  Discontinued during the 26-week open-label period, reason AE or SAE: 4 n (%)
  Discontinued during the 26-week open-label period, reason lack of efficacy: 8 n (%)
[2]; all cohorts
  Deaths: No deaths
[2]; all cohorts, N=30
  Subjects experiencing SAEs: 20.0%
  Subjects overall experiencing TEAEs: 83.3%
  Subjects with a TEAE that led to discontinuation of study drug: 13.3%
  Subjects with mild TEAEs: 23.3%
  Subjects with moderate TEAEs: 46.7%
  Subjects with severe TEAEs: 13.3%
  Subjects with treatment-related TEAEs: 53.3%
[3]
  Half-life: approximately 20 hours

From US20250082651A1, “GANAXOLONE FOR USE IN TREATING GENETIC EPILEPTIC DISORDERS” (Marinus Pharmaceuticals, Inc., priority 2017, published 2025)
